The record followed here is patent US20110052688A1, “SOLID DISPERSION COMPOSITION” (priority 2006, published 2011).

The nature of the data set: Solubility of fluvastatin sodium in solvents. Format: physicochemical. Particulars: in water, alcohols and acetone. An excerpt:
In one aspect, the solvent-based process uses a solvent, such as water, non-organic solvents, and organic solvents, to dissolve and intimately disperse or dissolve the drug and the one or more pharmaceutical acceptable polymers. The solvent is later removed by evaporation or other ways while the drug/polymer solid dispersion is collected into a solid dosage form. The use of organic solvents may generate hazardous and toxic wastes to the environment. If possible, water is used for water soluble drugs to prepare a dispersion. Other suitable solvents may be, for example, alcohols and acetone for the use of water-insoluble polymers.

`CC(C)n1c(/C=C/C(O)CC(O)CC(=O)O)c(-c2ccc(F)cc2)c2ccccc21` (stereo not drawn) [fluvastatin sodium, [R*,S*-(E)]=(±)-7-[3-(4-fluorophenyl)-1-(1-methylethyl)-1Hindol-2-yl]-3,5-dihydroxy-6-heptenoic acid]: the Solubility result is listed as “soluble”.
